According to article PMC6375640, “Genomic insights into neonicotinoid sensitivity in the solitary bee Osmia bicornis” (PLoS Genetics, 2019):
≈ marks a conversion by molar mass, not a printed value.

What was measured:
O. bicornis [1] = test: Acute contact toxicity bioassay; type: in vivo, Osmia bicornis; settings: for LD50: acute contact, applied to dorsal thorax, thiacloprid limit test 100 μg/bee; for toxicity classification according to U.S. EPA categories: contact exposure
Description: O. bicornis cocoons were purchased from Dr Schubert Plant Breeding (Landsberg, Germany) and stored at 4°C in constant darkness. To trigger emergence cocoons were transferred to an incubator (25°C, 55% RH, L16:D8) with emerged bees fed ab libitum with Biogluc (62% sugar concentration consisting of 37.5% fructose, 34.5% glucose, 25% sucrose, 2% maltose, and 1% oligosaccharides) (Biobest), soaked into a piece of cotton wool inside a plastic dish. Males (which are usually first to emerge) were removed from cages and discarded to reduce any unnecessary stress to the females used in insecticide bioassays.
(§1) Acute contact toxicity bioassays on unmated 2 day old female O. bicornis were conducted following the OECD Honey Bee Test guidelines, with modification where necessary. Bees were anaesthetised with CO2 for 5–10 seconds to allow application of insecticide. 1 μL of technical grade imidacloprid was applied to the dorsal thorax of each bee at concentrations of 0.0001, 0.001, 0.01, 0.1, 1, and 10 μg/μL. No mortality was observed using the same concentrations of thiacloprid so a limit test of 100 μg/bee was performed. Control bees were treated with 1 μL 100% acetone. Three replicates of 10 bees were tested for each concentration. Tested individuals were placed back into cages in the incubator (25°C, 55% RH, L16:D8), with five bees per cage. In piperonyl butoxide (PBO) synergist bioassays, bees were first treated with the maximum sublethal dose (in this case 100 μg/μL) of PBO followed by insecticide one hour later. Synergist bioassays included an additional control group treated only with PBO. Mortality was assessed 48 and 72 hours after application. Probit analysis was used to calculate the LD50 values, slope, and synergism ratio (where relevant) for each insecticide (Genstat v.18 (VSNI 2015)).

CYP9BU1 [2] = test: Metabolism assay with recombinant P450/CPR microsomes, UPLC-MS/MS; settings: for metabolism to 5-hydroxy form: 25 μM insecticide, 5 pmol P450, NADPH, 1 hour, 30°C
Text: (§2) O. bicornis P450 genes and house fly NADPH-dependent cytochrome P450 reductase (CPR) (GenBank accession no. Q07994) genes were codon optimised for expression in lepidopteran cell lines, synthesized (Geneart, CA, USA) and inserted into the pDEST8 expression vector (Invitrogen). The PFastbac1 vector with no inserted DNA was used to produce a control virus. The recombinant baculovirus DNA was constructed and transfected into Trichoplusia ni (High five cells, Thermo Fisher) using the Bac-to-Bac baculovirus expression system (Invitrogen) according to the manufacturer’s instructions. The titre of the recombinant virus was determined following protocols of the supplier. High Five cells grown to a density of 2 x 10^6 cells ml^-1 were co-infected with recombinant baculoviruses containing each bee P450 and CPR with a range of MOI (multiplicity of infection) ratios to identify the optimal conditions. Control cells were co-infected with the baculovirus containing vector with no insert (ctrl-virus) and the recombinant baculovirus expressing CPR using the same MOI ratios. Ferric citrate and δ-aminolevulinic acid hydrochloride were added to a final concentration of 0.1 mM at the time of infection and 24 h after infection to compensate the low levels of endogenous heme in the insect cells. After 48 h, cells were harvested, washed with PBS, and microsomes of the membrane fraction prepared according to standard procedures and stored at −80°C [41]. Briefly, pellets were homogenised for 30 s in 0.1 M Na/K-phosphate buffer, pH 7.4 containing 1 mM EDTA and DTT and 200 mM sucrose using a Fastprep (MP Biomedicals), filtered through miracloth and centrifuged for 10 min at 680g at 4°C. The supernatant was then centrifuged for 1 h at 100,000g at 4°C, with the pellet subsequently resuspended in 0.1M Na/K-phosphate buffer pH 7.6 containing 1 mM EDTA and DTT and 10% glycerol using a Dounce tissue grinder. P450 expression and functionality was estimated by measuring CO-difference spectra in reduced samples using a Specord 200 Plus Spectrophotometer (Analytik Jena) and scanning from 500 nm to 400 nm. The protein content of samples was determined using Bradford reagent (Sigma) and bovine serum albumin (BSA) as a reference.
(§3) Metabolism of thiacloprid and imidacloprid was assessed by incubating recombinant P450/CPR (5 pmol/well) or control virus/CPR (5 pmol/well) with each insecticide (25 μM) in the presence of an NADPH regeneration system at 30±1°C, shaking, for 1 hour. […] The peak integrals were calibrated externally against a standard calibration curve.

CYP9BU2 [3] = test: as above; settings: for metabolism to 5-hydroxy form: 25 μM insecticide, 5 pmol P450, NADPH, 1 hour, 30°C
Text: as §2, §3

CYP9BU1 [4] = test: Insecticide bioassay on transgenic flies expressing CYP9BU1; type: in vivo, Drosophila melanogaster; settings: transgenic line expressing CYP9BU1, Drosophila melanogaster, in vivo; CYP9BU1 strain
Description: (§4) CYP9BU1 and CYP9BU2 were codon optimised for D. melanogaster expression and cloned into the pUASTattB plasmid (GenBank: EF362409.1). These constructs were used to create transgenic fly lines, which were then tested in insecticide bioassays against imidacloprid and thiacloprid, as described previously.

[5] = tested on: transgenic Drosophila melanogaster expressing CYP9BU1; test: as above; type: in vivo; settings: for RR (resistance ratio): CYP9BU1 strain vs control line; for sensitivity relative to control flies (less sensitive): flies expressing CYP9BU1 vs control flies without transgene
Description: as §4

[6] = tested on: Drosophila melanogaster control line; test: in vivo; settings: for RR (resistance ratio): Control strain (reference); for Slope (+/- SE): log-dose probit mortality, Control strain
Description: as §4

in vivo = settings: in vivo; Control strain
Description: as §4

[7] = tested on: adult female O. bicornis gene expression; test: RNAseq of bees after sublethal oral neonicotinoid exposure (P450 induction); type: in vivo, Osmia bicornis; settings: for induction of P450 expression: 24 h after exposure to LD10; for number of genes significantly upregulated: 24 h after exposure to LD10, corrected p <0.05 vs solvent control
Description: (§5) To examine if P450 expression in O. bicornis is induced by exposure to sublethal concentrations of neonicotinoids, imidacloprid and thiacloprid were dissolved in acetone to the highest concentration possible, before being diluted to the LD10 of imidacloprid (0.0001 μg/bee) and thiacloprid (0.01 μg/bee) with 50% sucrose (w/v) in order to limit the amount of acetone consumed by bees. Prior to commencing oral bioassays bees underwent a 24 hour ‘training’ period in the Nicot cages to enable them to learn to feed from the syringes. This was followed by a 16h starvation period to encourage subsequent feeding. 15μL of the insecticide/sucrose solution was supplied orally to the bees in disposable plastic syringes. Control bees were fed 15μL of a sucrose solution containing the same volume of acetone used to make up the insecticide/sucrose solutions. When all of the solution had been consumed the bees were fed ab libitum with a 50% sucrose solution for 24 h. After this period for each condition four replicates comprising 5 bees per replicate were snap frozen in liquid nitrogen and RNA extracted from each replicate as above. RNA was used as a template for the generation of barcoded libraries (TrueSeq RNA library preparation, Illumina) which were sequenced across two lanes of an Illumina HiSeq2500 flowcell (100 bp paired end reads). Sequencing was carried out by Earlham Institute, Norwich, UK. To identify genes differentially expressed between control and the treatment the Tuxedo workflow was used to map with TopHat against the annotated reference genome, to estimate gene expression with Cufflinks and test for differential expression with Cuffdiff.

O. bicornis [8] = test: PBO (piperonyl butoxide) synergist bioassay; type: in vivo, Osmia bicornis; settings: with vs without PBO pre-treatment one hour before insecticide
Description: as §1

O. bicornis cuticle = test: Cuticular penetration of radiolabelled insecticide (pharmacokinetic study); type: in vivo, Osmia bicornis; settings: 24 h after application to dorsal thorax
Description: Bees were anaesthetised with CO2 for 5–10 seconds to allow application of insecticide. 5,000 ppm of [^14C]imidacloprid or [^14C]thiacloprid was applied to the dorsal thorax of each bee using a Hamilton repeating dispenser. Three replicates of five bees were placed into cages and fed a 50% sucrose solution from vertically hanging 2 ml syringes. Control bees were treated with acetone. Radiolabelled insecticide was rinsed off of each group of bees at set time intervals (0, 2, 4 and 24 hours after application) with acetonitrile water (90:10) three times. The […] bees were then individually combusted at 900°C in an Ox 120c oxidizer (Harvey Instruments Co., USA) followed by liquid scintillation counting of the released ^14CO2 in an alkaline scintillation cocktail (Ultima Gold, PerkinElmer) using a liquid scintillation analyser (Perkin Elmer Tri-Carb 2910 TR). The levels of excreted [^14C]imidacloprid or [^14C]thiacloprid, and/or metabolites, were measured by wiping cages with filter papers dipped in acetone and 0.5 mL aliquots of cuticular rinse or filter papers were added to 3 mL of scintillation fluid cocktail and the radioactivity was quantified by liquid scintillation analysis as above. An unpaired t-test was used to compare the penetration of the two compounds at each time point.

O. bicornis nAChRs = test: Radioligand competition binding, [3H]imidacloprid displacement from head membrane preparations; set-up: species or system Osmia bicornis; settings: 576 pM radioligand, 60 min room temperature
Description: [^3H]imidacloprid (specific activity 1.406 GBq μmol^−1) displacement studies were conducted using membrane preparations isolated from frozen (−80°C) O. bicornis heads, following previously published protocols. Briefly, bee heads weighing 10 g were homogenized in 200 ml ice-cold 0.1 M potassium phosphate buffer, pH 7.4 containing 95 mM sucrose using a motor-driven Ultra Turrax blender. […] Assays were performed in a 96-well microtitre plate with bonded GF/C filter membrane (Packard UniFilter-96, GF/C) and consisted of 200 μl of homogenate (0.48 mg protein), 25 μl of [^3H]imidacloprid (576 pM) and 25 μl of competing ligand. Ligand concentrations used ranged from 0.001 to 10 000 nM and were tested in triplicate per competition assay. The assay was started by the addition of homogenate and incubated for 60 min at room temperature. Bound [^3H]imidacloprid was quantified by filtration into a second 96-well filter plate (conditioned with ice-cold 100 mM potassium phosphate buffer, pH 7.4 (including BSA 5 g litre−1)) using a commercial cell harvester (Brandel). […] Each well was then loaded with 25 μl of scintillation cocktail (Microszint-O-Filtercount, Packard) and the plate counted in a Topcount scintillation counter (Packard). Non-specific binding was determined using a final concentration of 10 μM unlabelled imidacloprid. […]

[9] = tested on: transgenic Drosophila melanogaster expressing CYP9BU2; test: Insecticide bioassay on transgenic flies expressing CYP9BU2; type: in vivo; settings: for RR (resistance ratio): CYP9BU2 strain vs control line; for sensitivity relative to control flies: flies expressing CYP9BU2 vs control flies without transgene
Description: as §4

CYP9BU2 [10] = test: as above; type: in vivo, Drosophila melanogaster; settings: transgenic line expressing CYP9BU2, Drosophila melanogaster, in vivo; CYP9BU2 strain
Description: as §4

O. bicornis [11] = test: Sublethal dose (LD10) used for oral exposure; type: in vivo, Osmia bicornis; settings: used as sublethal dose, supplied orally in 50% sucrose
Description: as §5, with “To identify genes differentially expressed between control and the treatment the Tuxedo workflow was used to map with TopHat against the annotated reference genome, to estimate gene expression with Cufflinks and test for differential expression with Cuffdiff.” left out

[12] = production of hydroxy metabolite per pmol P450

SMILES	LD50 (O. bicornis [1]; adult female bees) [μg/bee]	toxicity classification according to U.S. EPA categories (O. bicornis [1])	metabolism to 5-hydroxy form (CYP9BU1 [2])	metabolism to 5-hydroxy form (CYP9BU2 [3])	LC50 (CYP9BU1 [4]) [µg/mL]	RR (resistance ratio) [5]	sensitivity relative to control flies (less sensitive) [5]	RR (resistance ratio) [6]	Slope (+/- SE) [6]	LC50 (in vivo) [µg/mL]	induction of P450 expression [7]	number of genes significantly upregulated [7] [genes]	change in sensitivity after PBO pre-treatment (O. bicornis [8])	final uptake through the cuticle (O. bicornis cuticle) [%]	IC50 (O. bicornis nAChRs) [nM]	RR (resistance ratio) [9]	sensitivity relative to control flies [9]	LC50 (CYP9BU2 [10]) [µg/mL]	LD10 (O. bicornis [11]) [μg/bee]	also measured
N#C/N=C1\SCCN1Cc1ccc(Cl)nc1 [thiacloprid]	> 100	practically non-toxic	metabolise these compounds to their hydroxylated forms	metabolise these compounds to their hydroxylated forms	65.7 (≈ 260 µM)	3.8	~ 4 times	1	1.2 +/- 0.14	17 (≈ 67.4 µM)	no P450 showed a significant increase in expression	16	> 7 fold	28	2.4	1.1	no significant resistance	17.5 (≈ 69.2 µM)	0.01	mortality (O. bicornis [1]; 1 μL at 0.0001-10 μg/μL, contact): No mortality; efficiency of metabolism relative to imidacloprid (CYP9BU1 [2]; [12]): significantly greater efficiency than imidacloprid; efficiency of metabolism relative to imidacloprid (CYP9BU2 [3]; [12]): significantly greater efficiency than imidacloprid
O=[N+]([O-])NC1=NCCN1Cc1ccc(Cl)nc1 [imidacloprid]	0.046	highly toxic	metabolise these compounds to their hydroxylated forms	metabolise these compounds to their hydroxylated forms	85.9 (≈ 336 µM)	0.5	no significant differences in sensitivity	1	1.7 +/- 0.12	165 (≈ 645 µM)	no P450 showed a significant increase in expression	27	No significant difference	27	8.3	0.8	no significant differences in sensitivity	135 (≈ 530 µM)	0.0001	fold more sensitive to imidacloprid than thiacloprid (O. bicornis [1]; adult female bees, ratio of contact LD50): > 2,000 fold; Slope (+/- SE) ([5]; log-dose probit mortality, CYP9BU1 strain): 1.3 +/- 0.13; Slope (+/- SE) ([9]; log-dose probit mortality, CYP9BU2 strain): 1.5 +/- 0.14
